Experimental data from patent publication US20060041962A1, “Genes and uses thereof to modulate secondary metabolite biosynthesis” (priority 2002, published 2006).

Columns and labels:
tobacco BY-2 cells [1] = assay: cDNA-AFLP transcript profiling of jasmonate-elicited BY-2 cells; assay type: cell-based, Nicotiana tabacum; conditions: 50 μM methyl jasmonate vs DMSO-treated cells, approximately 20,000 tags analyzed
Procedure: Total RNA was prepared by LiCl precipitation (Sambrook, 1989). Starting from 5 μg total RNA, first-strand cDNA was synthesized by reverse transcription with a biotinylated oligo-dT25 primer (Genset, Paris, France) and Superscript II (Life Technologies, Gaithersburg, Md.). Second-strand synthesis was performed by strand displacement with Escherichia coli ligase (Life Technologies), DNA polymerase I (USB, Cleveland, Ohio) and RNAse-H (USB).
500 nanograms of double-stranded cDNA was used for AFLP analysis as described (Vos et al., 1995; Bachem et al., 1996) with modifications. The restriction enzymes used were BstYI and MseI (Biolabs) and the digestion was performed in two separate steps. […]
Scanned gel images were quantitatively analyzed using the AFLP QuantarPro image analysis software (Keygene N. V., Wageningen, N L). This software was designed for accurate lane definition, fragment detection, and quantification of band intensities. All visible AFLP fragments were scored and individual band intensities in each lane were measured. […] The correction factors were calculated based on constant bands throughout the time course. […] A coefficient of variation (CV) was calculated by dividing […]. […]

tobacco BY-2 cells [2] = assay: Nicotine alkaloid accumulation in methyl jasmonate elicited BY-2 cells (GC-MS); assay type: cell-based, Nicotiana tabacum
Procedure: (§1) Nicotiana tabacum BY-2 cells were cultured in modified Linsmaier-Skoog (LS) medium (Linsmaier & Skoog, 1965), as described by Nagata & Kumagai (1999). First, the growth curve of BY-2 cell culture was determined (FIG. 2) and the late exponential phase was used in elicitation experiments. Since the ability of high auxin concentration to inhibit the biosynthesis of nicotine is well known (Hibi et al., 1994; Ishikawa, et al., 1994), the six-day-old culture was prior elicitation washed and diluted 10-fold with fresh hormone free medium. After 12 hours, the cells were treated with methyl jasmonate (MeJA). MeJA (cis-form, Duchefa M0918) dissolved in dimethyl sulfoxide (DMSO) and was added to the culture medium at a final concentration of 50 μM. Same amount of DMSO alone served as a control. Samples for cDNA-AFLP analysis were taken at 0, 1, 2, 3, 4, 5, 6, 7, 8, 9, 10, 11, 12, 13, 14, 15, 16, 18, 20, 24, 36, 48, and 98 hours after jasmonate addition or at 0, 2, 4, 6, 8, 10, 12, 14, 16, 24, 36, 48, and 98 hours after DMSO addition, respectively. For alkaloid analysis, the samples were taken at 0, 12, 14, 24, 48 and 98 hours. Three replicate shake flasks pooled together yielded the total culture volume of 75 ml. After filtering (Miracloth) under vacuum the cells were lyophilized. Lyophilized cell samples were extracted for GC-MS analysis by a modified method described by Furuya et al. (1971). Cells were weighed and 25 μg of internal standard (5α-cholestan) was added. The samples were made alkaline with ammonia (10% (v/v), 1 ml) and water (2 ml) was added. Alkaloids were extracted by vortexing with 2 ml of dicloromethane. After 30 min the samples were centrifuged (2000 rpm, 10 min) and the lower organic layer was separated and transferred into glass vials. The samples were concentrated to 50 μl and 3 μl aliquots were injected to GC-MS. In some cases (for derivatization of free fatty acids and more polar compounds) the samples were silylated prior to GC-MS analysis. After evaporation to dryness, 25 μl of dichloromethane was added and silylation was performed by N-methyl-N-(trimethylsilyl)-trifluoro-acetamide (Pierce, Rockford, USA) at 120° C. for 20 min.

NsPMT2 promoter = NsPMT2 promoter EGFP-GUS reporter in transgenic BY-2 cell line 7 (GUS activity); assay type: cell-based, Nicotiana sylvestris
Excerpt: The PMT gene encodes the enzyme putrescine N-methyltransferase, catalysing the first committed step in the production of nicotinic alkaloids. Transcripts of Nicotiana sp. PMT genes are reported to be up regulated by methyl jasmonate. […] We have applied this knowledge and constructed a new reporter construct, called pHGWFS7-ppmt2, harbouring a EGFP-GUS fusion reporter gene (in Gateway® vector pHGWFS7; Karimi et al., Trends Plant Sci. 2002, 7(5):193-195), driven by the NsPMT2 promoter. To this end, primers were designed for the Adapter attB PCR protocol (InVitroGen) to amplify the NsPMT2 5′flanking region covering nucleotides −1713 to +3 (Table 3).
The pHGWFS7-ppmt2 construct was subsequently introduced in the ternary Agrobacterium tumefaciens transformation system, LBA4404.pBBR1-MCS-5.virGN54D (van der Fits et al., Plant Mol. Biol. 2000, 43(4):495-502), allowing efficient transformation of tobacco BY-2 cell cultures. Different independent transgenic lines were established and the jasmonate inducibility of the promoter in these transgenic BY-2 cells was confirmed (Table 4).
To illustrate the potential of this approach, BY-2-pmt2 cell line 7 was double transformed with the pK7WGD2-C330 construct, harbouring the MJM tag with SEQ ID No 148, an AP2-domain transcription factor encoding gene (also designated as C330 in this application), driven by the constitutive p35S promoter.

[3] = test system: BY-2 reporter cell line (line 7); assay: Nicotine alkaloid content of BY-2 reporter cell line super-transformed with C330; assay type: cell-based, Nicotiana tabacum; conditions: line 7 + C330 vector, −2,4D + MeJA
Procedure: In a next step, we evaluated if there was a correlation between the GUS-activity in the BY-2 reporter cell line and nicotine alkaloid accumulation. […] Measurements in tables 6A and 6B were carried out in the presence or absence of synthetic auxins. “−2,4 D” means in the absence of dichlorophenoxy-acetic acid. “NAA” means in the presence of alfa-naphtalene-acetic acid. “DW” means dry weight, “MeJA” is with the addition of the elicitor methyl jasmonate, “DMSO” means with the addition of dimethylsulfoxide instead of MeJA.
as §1

## CC/C=C\CC1C(=O)CCC1CC(=O)OC (centres unmarked) [MeJA, methyl jasmonate]
Tobacco BY-2 cells [1]
  differential transcript tags: 591
Tobacco BY-2 cells [2]; BY-2 cells elicited vs control samples
  nicotine, anabasine, anatalline and anatabine content: marked increase
Tobacco BY-2 cells [2]; BY-2 cells, 50 μM MeJA
  highest concentration of anatabine: 800 µg/g (d.w.)
  maximum concentration of nicotine relative to anatabine (dry weight basis): 4%
  start of anatabine accumulation after elicitation: 24 h
  start of nicotine accumulation after elicitation: 14 h
  time after which anabasine and two anatalline isomers increased: 48 h
NsPMT2 promoter; BY-2 cell line 7, +MeJA, 0 h (Table 4)
  GUS activity: 0.8 ± 1.0 units/mg protein/minute
NsPMT2 promoter; BY-2 cell line 7, +MeJA, 4 h (Table 4)
  GUS activity: 2.0 ± 0.3 units/mg protein/minute
NsPMT2 promoter; BY-2 cell line 7, +MeJA, 8 h (Table 4)
  GUS activity: 6.4 ± 0.3 units/mg protein/minute
NsPMT2 promoter; BY-2 cell line 7, +MeJA, 14 h (Table 4)
  GUS activity: 29.1 ± 1.9 units/mg protein/minute
NsPMT2 promoter; BY-2 cell line 7, +MeJA, 24 h (Table 4)
  GUS activity: 92.2 ± 6.4 units/mg protein/minute
NsPMT2 promoter; BY-2 line 7, +MeJA, 0 h (Table 5)
  GUS activity: 0.0 ± 0.0 units/mg protein/minute
NsPMT2 promoter; BY-2 line 7, +MeJA, 24 h (Table 5)
  GUS activity: 399.0 ± 56.4 units/mg protein/minute
NsPMT2 promoter; BY-2 line 7, +MeJA, 48 h (Table 5)
  GUS activity: 663.0 ± 33.6 units/mg protein/minute
NsPMT2 promoter; BY-2 line 7-C330, +MeJA, 0 h
  GUS activity: 1.0 ± 0.1 units/mg protein/minute
NsPMT2 promoter; BY-2 line 7-C330, +MeJA, 24 h
  GUS activity: 276.7 ± 55.9 units/mg protein/minute
NsPMT2 promoter; BY-2 line 7-C330, +MeJA, 48 h
  GUS activity: 347.8 ± 2.0 units/mg protein/minute
[3]; 0 h
  Anatabine: 0.038 mg/g DW
  Nicotine: 0.008 mg/g DW
[3]; 24 h
  Anabasine: 0.099 Mg/g DW
  Anatabine: 2.065 mg/g DW
  Nicotine: 0.271 mg/g DW
[3]; 48 h
  Anabasine: 0.297 Mg/g DW
  Anatabine: 3.541 mg/g DW
  Nicotine: 0.283 mg/g DW
